Reference: PubChem BioAssay AID1259407 (Chemical Carcinogenesis Research Information System (CCRIS), 2018)
The source made the active and inactive calls. The rule behind the calls is not given here.

System: CCRIS mutagenicity, Ames/micronucleus/aberration tests
Assay: CCRIS mutagenicity studies

CCOS(C)(=O)=O
mutagenic call (End Point: IN VITRO MICRONUCLEUS, Test System: CHL/IU CELLS, Metabolic Activation: NONE): active; positive | mutagenic call (End Point: IN VITRO MICRONUCLEUS, Test System: V79 CELLS, Metabolic Activation: NONE): active; positive | mutagenic call (End Point: In vitro micronucleus, Test System: Chinese Hamster Ovary (CHO-WBL) cells, Metabolic Activation: None): active; positive (p<0.01) | mutagenic call (End Point: In vivo micronucleus, Test System: Micronucleated hepatocytes, Species: Rat, Strain/Sex: F344/Male, Route: Intraperitoneal): inactive; negative | mutagenic call (End Point: In vivo micronucleus, Test System: Micronucleated hepatocytes, Species: Rat, Strain/Sex: F344/Male, Route: Oral): inactive; negative | mutagenic call (Test System: AMES SALMONELLA TYPHIMURIUM, Strain/Indicator: TA98, Metabolic Activation: NONE, Method: SPIRAL ASSAY): inactive; negative | mutagenic call (Test System: AMES SALMONELLA TYPHIMURIUM, Strain/Indicator: TA98, Metabolic Activation: NONE, Method: STANDARD PLATE): inactive; negative | mutagenic call (Test System: AMES SALMONELLA TYPHIMURIUM, Strain/Indicator: TA98, Metabolic Activation: RAT, LIVER, S-9, AROCLOR 1254, Method: SPIRAL ASSAY): active; positive | mutagenic call (Test System: AMES SALMONELLA TYPHIMURIUM, Strain/Indicator: TA100, Metabolic Activation: NONE, Method: SPIRAL ASSAY): active; positive | mutagenic call (Test System: AMES SALMONELLA TYPHIMURIUM, Strain/Indicator: TA100, Metabolic Activation: NONE, Method: STANDARD PLATE): active; positive | mutagenic call (Test System: AMES SALMONELLA TYPHIMURIUM, Strain/Indicator: TA100, Metabolic Activation: RAT, LIVER, S-9, AROCLOR 1254, Method: SPIRAL ASSAY): inactive; negative | mutagenic call (Test System: AMES SALMONELLA TYPHIMURIUM, Strain/Indicator: TA100, Metabolic Activation: RAT, LIVER, S-9, AROCLOR 1254, Method: STANDARD PLATE): active; positive | mutagenic call (Test System: AMES SALMONELLA TYPHIMURIUM, Strain/Indicator: TA1535, Metabolic Activation: NONE, Method: SPIRAL ASSAY): active; positive | mutagenic call (Test System: AMES SALMONELLA TYPHIMURIUM, Strain/Indicator: TA1535, Metabolic Activation: NONE, Method: STANDARD PLATE): active; positive | mutagenic call (Test System: AMES SALMONELLA TYPHIMURIUM, Strain/Indicator: TA1535, Metabolic Activation: RAT, LIVER, S-9, AROCLOR 1254, Method: SPIRAL ASSAY): active; positive | mutagenic call (Test System: AMES SALMONELLA TYPHIMURIUM, Strain/Indicator: TA1535, Metabolic Activation: RAT, LIVER, S-9, AROCLOR 1254, Method: STANDARD PLATE): active; positive | mutagenic call (Test System: AMES SALMONELLA TYPHIMURIUM, Strain/Indicator: TA1537, Metabolic Activation: NONE, Method: SPIRAL ASSAY): inactive; negative | mutagenic call (Test System: AMES SALMONELLA TYPHIMURIUM, Strain/Indicator: TA1537, Metabolic Activation: NONE, Method: STANDARD PLATE): active; positive | mutagenic call (Test System: AMES SALMONELLA TYPHIMURIUM, Strain/Indicator: TA1537, Metabolic Activation: RAT, LIVER, S-9, AROCLOR 1254, Method: SPIRAL ASSAY): inactive; negative | mutagenic call (Test System: AMES SALMONELLA TYPHIMURIUM, Strain/Indicator: TA1537, Metabolic Activation: RAT, LIVER, S-9, AROCLOR 1254, Method: STANDARD PLATE): active; positive | mutagenic call (Test System: AMES SALMONELLA TYPHIMURIUM, Strain/Indicator: TA1538, Metabolic Activation: RAT, LIVER, S-9, AROCLOR 1254, Method: STANDARD PLATE): active; positive | mutagenic call (Test System: AMES SALMONELLA TYPHIMURIUM, Strain/Indicator: YG7100, Metabolic Activation: NONE, Method: PREINCUBATION): inactive; negative | mutagenic call (Test System: AMES SALMONELLA TYPHIMURIUM, Strain/Indicator: YG7104, Metabolic Activation: NONE, Method: PREINCUBATION): active; positive | mutagenic call (Test System: AMES SALMONELLA TYPHIMURIUM, Strain/Indicator: YG7108, Metabolic Activation: NONE, Method: PREINCUBATION): active; positive | mutagenic call (Test System: AMES SALMONELLA TYPHIMURIUM, Strain/Indicator: YG7112, Metabolic Activation: NONE, Method: PREINCUBATION): active; positive | mutagenic call (Test System: AMES SALMONELLA TYPHIMURIUM, Strain/Indicator: YG7113, Metabolic Activation: NONE, Method: PREINCUBATION): active; positive | mutagenic call (Test System: AMES SALMONELLA TYPHIMURIUM, Strain/Indicator: YG7119, Metabolic Activation: NONE, Method: PREINCUBATION): inactive; negative | mutagenic call (Test System: CHINESE HAMSTER OVARY, Strain/Indicator: CHO-K1-BH4 (HGPRT)/6-THIOGUANINE, Metabolic Activation: NONE, Method: LIQUID SUSPENSION): active; positive | mutagenic call (Test System: CHINESE HAMSTER OVARY, Strain/Indicator: CHO-K1-BH4 (HGPRT)/6-THIOGUANINE, Metabolic Activation: NONE, Method: SUSPENSION/PLATE): active; positive | mutagenic call (Test System: CHINESE HAMSTER OVARY, Strain/Indicator: CHO-K1-BH4 (HGPRT), Metabolic Activation: NONE, Method: MONOLAYER): active; positive | mutagenic call (Test System: CHINESE HAMSTER OVARY, Strain/Indicator: CHO-K1-BH4 (HGPRT), Metabolic Activation: NONE, Method: SUSPENSION/PLATE): active; positive | mutagenic call (Test System: CHINESE HAMSTER V-79, Strain/Indicator: V-79 (HGPRT)/6-THIOGUANINE, Metabolic Activation: NONE): active; positive | mutagenic call (Test System: CHINESE HAMSTER V-79, Strain/Indicator: V-79 (HPRT)/6-THIOGUANINE, Metabolic Activation: NONE, Method: FLUCTUATION TEST): active; positive | mutagenic call (Test System: CHINESE HAMSTER V-79, Strain/Indicator: V-79-MZ (HPRT)/6-THIOGUANINE, Metabolic Activation: NONE): active; positive | mutagenic call (Test System: CHINESE HAMSTER V-79, Strain/Indicator: V-79-UL (HPRT)/6-THIOGUANINE, Metabolic Activation: NONE): active; positive | mutagenic call (Test System: CHINESE HAMSTER V-79, Strain/Indicator: V-79/6-THIOGUANINE, Metabolic Activation: NONE, Method: FLASK ASSAY): active; positive | mutagenic call (Test System: CHINESE HAMSTER V-79, Strain/Indicator: V-79/6-THIOGUANINE, Metabolic Activation: NONE, Method: LIQUID SUSPENSION): active; positive | mutagenic call (Test System: CHINESE HAMSTER V-79, Strain/Indicator: V-79/6-THIOGUANINE, Metabolic Activation: NONE, Method: STANDARD PLATE): active; positive | mutagenic call (Test System: CHINESE HAMSTER V-79, Strain/Indicator: V-79/6-THIOGUANINE, Metabolic Activation: NONE, Method: SUSPENSION/PLATE): active; positive | mutagenic call (Test System: CHINESE HAMSTER V-79, Strain/Indicator: V-79/8-AZAGUANINE, Metabolic Activation: NONE, Method: STANDARD PLATE): active; positive | mutagenic call (Test System: CHINESE HAMSTER V-79, Strain/Indicator: V-79/8-AZAGUANINE, Metabolic Activation: NONE, Method: SUSPENSION/PLATE): active; positive | mutagenic call (Test System: CHINESE HAMSTER V-79, Strain/Indicator: V-79/OUABAIN, Metabolic Activation: NONE, Method: STANDARD PLATE): active; positive | mutagenic call (Test System: CHINESE HAMSTER V-79, Strain/Indicator: V-79/OUABAIN, Metabolic Activation: NONE, Method: SUSPENSION/PLATE): active; positive | mutagenic call (Test System: CHO/HGPRT, Strain/Indicator: CHO-K1-BH4, Metabolic Activation: MOUSE, IN VIVO, Method: HOST-MEDIATED): active; positive | mutagenic call (Test System: E. COLI, Strain/Indicator: WP2, Metabolic Activation: NONE, Method: STANDARD PLATE): active; positive | mutagenic call (Test System: E. COLI, Strain/Indicator: WP2, Metabolic Activation: RAT, LIVER, S-9, AROCLOR 1254, Method: STANDARD PLATE): active; positive | mutagenic call (Test System: E. COLI, Strain/Indicator: WP2 UVRA, Metabolic Activation: HAMSTER, LIVER, S-9, AROCLOR 1254, Method: STANDARD PLATE): inactive; negative | mutagenic call (Test System: E. COLI, Strain/Indicator: WP2 UVRA, Metabolic Activation: HAMSTER, LIVER, S-9, Method: STANDARD PLATE): inactive; negative | mutagenic call (Test System: E. COLI, Strain/Indicator: WP2 UVRA, Metabolic Activation: MOUSE, LIVER, S-9, AROCLOR 1254, Method: STANDARD PLATE): inactive; negative | mutagenic call (Test System: E. COLI, Strain/Indicator: WP2 UVRA, Metabolic Activation: MOUSE, LIVER, S-9, Method: STANDARD PLATE): inactive; negative | mutagenic call (Test System: E. COLI, Strain/Indicator: WP2 UVRA, Metabolic Activation: RAT, LIVER, S-9, Method: STANDARD PLATE): inactive; negative | mutagenic call (Test System: MOUSE LYMPHOMA, Strain/Indicator: L5178Y (HGPRT)/6-THIOGUANINE, Metabolic Activation: NONE, Method: SUSPENSION/PLATE): active; positive | mutagenic call (Test System: MOUSE LYMPHOMA, Strain/Indicator: L5178Y (TK+/TK-)/TRIFLUOROTHYMIDINE, Metabolic Activation: NONE, Method: SUSPENSION/PLATE): active; positive | mutagenic call (Test System: MOUSE LYMPHOMA, Strain/Indicator: L5178Y (TK+/TK-), Metabolic Activation: NONE, Method: FLUCTUATION TEST): active; positive | mutagenic call (Test System: MOUSE LYMPHOMA, Strain/Indicator: L5178Y (TK+/TK-), Metabolic Activation: NONE, Method: IN SITU): active; positive | mutagenic call (Test System: MOUSE LYMPHOMA, Strain/Indicator: L5178Y (TK+/TK-), Metabolic Activation: NONE, Method: LIQUID SUSPENSION): active; positive | mutagenic call (Test System: MOUSE LYMPHOMA, Strain/Indicator: L5178Y (TK+/TK-), Metabolic Activation: RAT, LIVER, S-9, AROCLOR 1254, Method: SUSPENSION/PLATE): active; positive | mutagenic call (Test System: UDS HUMAN CELLS, Strain/Indicator: THY INCORP (NON-S-PHASE), Metabolic Activation: NONE, Method: LIQUID SCINTILLATION COUNTING): active; positive | mutagenic call (Test System: UDS HUMAN LYMPHOCYTES, Strain/Indicator: THY INCORP (NON-S-PHASE), Metabolic Activation: NONE, Method: LIQUID SCINTILLATION COUNTING): active; positive | mutagenic call (Test System: UDS RODENT PRIMARY CELLS, Strain/Indicator: THY INCORP (NON-S-PHASE), Metabolic Activation: NONE, Method: LIQUID SCINTILLATION COUNTING): active; positive
